Target: α-melanocyte-stimulating hormone receptor (hMC4R) (Homo sapiens (Human), UniProt P32245)
Test: In vitro binding affinity assay using hMC4R (radioligand competition binding, [125I]-(Nle4, D-Phe7)-α-MSH)
Conditions: geometric mean, read-out: Ki (nM) geometric
Procedure, shortened: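 Membranes from CHO cells stably expressing hMC4R (2 μg/well) incubated 2 h RT with [125I]-NDP-α-MSH and compound (300 nM-0.01 nM, 1% DMSO); 2 μM α-MSH defined nonspecific binding. Filtration and scintillation counting; Ki from IC50 via Cheng-Prusoff.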

Chain of α-melanocyte-stimulating hormone receptor (hMC4R) (P32245 whole entry): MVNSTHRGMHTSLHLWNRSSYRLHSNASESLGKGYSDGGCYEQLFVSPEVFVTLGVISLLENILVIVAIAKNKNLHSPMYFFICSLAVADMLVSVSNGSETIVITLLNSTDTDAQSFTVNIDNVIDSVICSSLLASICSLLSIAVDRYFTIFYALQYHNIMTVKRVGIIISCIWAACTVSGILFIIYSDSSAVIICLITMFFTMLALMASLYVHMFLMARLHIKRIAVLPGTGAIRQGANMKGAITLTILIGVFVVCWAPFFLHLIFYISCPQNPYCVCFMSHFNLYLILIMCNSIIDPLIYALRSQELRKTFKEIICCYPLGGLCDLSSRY

| Structure (SMILES) | Ki [nM] |
| --- | --- |
| COc1cc([C@@H](C)C(=O)N2CC[C@@]3(CCc4cc(-c5cnccn5)c(C)nc4N3)C2)c(F)cn1 [Example 142, (2R)-2-(5-fluoro-2-methoxypyridin-4-yl)-1-[(2S)-7-methyl-6-(pyrazin-2-yl)-3,4-dihydro-1H-spiro[1,8-naphthyridine-2,3′-pyrrolidin]-1′-yl]propan-1-one] | 1.8 |
| COc1cc([C@@H](C)C(=O)N2CC[C@@]3(CCc4cc(-c5nc(C(F)F)n(C)n5)c(C)nc4N3)C2)c(Cl)cn1 [Example 120, (2R)-2-(5-chloro-2-methoxypyridin-4-yl)-1-{(2S)-6-[5-(difluoromethyl)-1-methyl-1H-1,2,4-triazol-3-yl]-7-methyl-3,4-dihydro-1H-spiro[1,8-naphthyridine-2,3′-pyrrolidin]-1′-yl}propan-1-one] | 0.4 |
| COc1cc([C@@H](C)C(=O)N2CC[C@@]3(CCc4cc(-c5cncc(C)n5)c(C)nc4N3)C2)c(F)cn1 [Example 156, (2R)-2-(5-fluoro-2-methoxypyridin-4-yl)-1-[(2S)-7-methyl-6-(6-methylpyrazin-2-yl)-3,4-dihydro-1H-spiro[1,8-naphthyridine-2,3′-pyrrolidin]-1′-yl]propan-1-one] | 5.9 |
| COc1cc([C@@H](C)C(=O)N2CC[C@@]3(CCc4cc(-c5ccnnc5)c(C)nc4N3)C2)c(F)cn1 [Example 141, (2R)-2-(5-fluoro-2-methoxypyridin-4-yl)-1-[(2S)-7-methyl-6-(pyridazin-4-yl)-3,4-dihydro-1H-spiro[1,8-naphthyridine-2,3′-pyrrolidin]-1′-yl]propan-1-one] | 14 |
| Cc1nc2c(cc1-c1nnn(C)n1)CC[C@@]1(CCN(C(=O)C(C)c3ccc(C(F)(F)F)cc3)C1)N2 (single isomer, unassigned) [Example 109] | 0.73 |
| COc1cc([C@@H](C)C(=O)N2CC[C@@]3(CCc4cc(-c5cnn(C)c5)c(C)nc4N3)C2)c(Cl)cn1 (single isomer, unassigned) [Example 104] | 0.48 |

More lines, now with the values ahead:

| Ki [nM] | Structure (SMILES) |
| --- | --- |
| 81 | COc1cc([C@@H](C)C(=O)N2CC[C@@]3(CCc4cc(-c5ccc6sc(C)nc6c5)c(C)nc4N3)C2)c(F)cn1 [Example 165, (2R)-2-(5-fluoro-2-methoxypyridin-4-yl)-1-[(2S)-7-methyl-6-(2-methyl-1,3-benzothiazol-5-yl)-3,4-dihydro-1H-spiro[1,8-naphthyridine-2,3′-pyrrolidin]-1′-yl]propan-1-one] |
| 2.5 | COc1cc([C@@H](C)C(=O)N2CC[C@@]3(CCc4cc(-c5cccc(OC(F)F)n5)c(C)nc4N3)C2)c(F)cn1 [Example 198, (2R)-1-{(2S)-6-[6-(difluoromethoxy)pyridin-2-yl]-7-methyl-3,4-dihydro-1H-spiro[1,8-naphthyridine-2,3′-pyrrolidin]-1′-yl}-2-(5-fluoro-2-methoxypyridin-4-yl)propan-1-one] |
| 0.82 | COc1cc([C@@H](C)C(=O)N2CC[C@@]3(CCc4cc(-c5nccc(C(F)F)n5)c(C)nc4N3)C2)c(F)cn1 [Example 200, (2R)-1-{(2S)-6-[4-(difluoromethyl)pyrimidin-2-yl]-7-methyl-3,4-dihydro-1H-spiro[1,8-naphthyridine-2,3′-pyrrolidin]-1′-yl}-2-(5-fluoro-2-methoxypyridin-4-yl)propan-1-one] |
| 2.3 | Cc1nc2c(cc1-c1ncccn1)CC[C@@]1(CCN(C(=O)C(C)c3ccc(F)cc3F)C1)N2 (single isomer, unassigned) [Example 190] |
| 7.6 | COc1cc([C@@H](C)C(=O)N2CC[C@@]3(CCc4cc(-c5ccncc5)c(C)nc4N3)C2)c(F)cn1 [Example 169, (2R)-2-(5-fluoro-2-methoxypyridin-4-yl)-1-[(2S)-7-methyl-6-(pyridin-4-yl)-3,4-dihydro-1H-spiro[1,8-naphthyridine-2,3′-pyrrolidin]-1′-yl]propan-1-one] |
| 12 | COc1cc([C@@H](C)C(=O)N2CC[C@@]3(CCc4cc(-c5nc(C(F)(F)F)cs5)c(C)nc4N3)C2)c(F)cn1 [Example 182, (2R)-2-(5-fluoro-2-methoxypyridin-4-yl)-1-{(2S)-7-methyl-6-[4-(trifluoromethyl)-1,3-thiazol-2-yl]-3,4-dihydro-1H-spiro[1,8-naphthyridine-2,3′-pyrrolidin]-1′-yl}propan-1-one] |

Same assay, conditions: geometric mean, read-out: Ki (nM) geometric mean

| Structure (SMILES) | Ki [nM] |
| --- | --- |
| Cc1nc2c(cc1-c1nnn(C)n1)CC[C@@]1(CCN(C(=O)Cc3ccc(C(F)(F)F)cc3)C1)N2 (single isomer, unassigned) [Example 65, 1-[7-methyl-6-(2-methyl-2H-tetrazol-5-yl)-3,4-dihydro-1H-spiro[1,8-naphthyridine-2,3′-pyrrolidin]-1′-yl]-2-[4-(trifluoromethyl)phenyl]ethan-1-one] | 1.7 |
| COc1cc([C@@H](C)C(=O)N2CC[C@@]3(CCc4cc(-c5ncccn5)c(C)nc4N3)C2)c(Cl)cn1 [Example 15, (2R)-2-(5-Chloro-2-methoxypyridin-4-yl)-1-[(2S)-7-methyl-6-(pyrimidin-2-yl)-3,4-dihydro-1H-spiro[1,8-naphthyridine-2,3′-pyrrolidin]-1′-yl]propan-1-one] | 0.25 |
| COc1cc([C@@H](C)C(=O)N2CC[C@]3(CCc4cc(-c5ncccn5)c(C)nc4N3)C2)c(F)cn1 [Example 29, (2R)-2-(5-fluoro-2-methoxypyridin-4-yl)-1-[(2R)-7-methyl-6-(pyrimidin-2-yl)-3,4-dihydro-1H-spiro[1,8-naphthyridine-2,3′-pyrrolidin]-1′-yl]propan-1-one] | 11 |

Target: human Melanocortin-4 receptor (MC4R) (Homo sapiens (Human), UniProt P32245)
Test: Functional in vitro MC4R antagonist potency assay (cAMP HTRF in CHO cells, αMSH EC80 stimulation)
Assay type: cell-based
Conditions: cAMP HTRF in CHO cells expressing human MC4R, 200 nM αMSH (EC80); Kb by Leff-Dougall equation; geometric mean
Method: The functional in vitro antagonist potency for test compounds was determined by monitoring intracellular cyclic adenosine monophosphate (cAMP) levels in Chinese hamster ovary (CHO—) cells stably expressing the human Melanocortin-4 receptor (MC4R). […] The activated Ga subunit can couple to downstream effectors to regulate the levels of second messengers or cAMP within the cell. Thereby, determination of intracellular cAMP levels allows for pharmacological characterization. Intracellular cAMP levels are quantitated using a homogenous assay utilizing the Homogeneous Time-Resolved Fluorescence (HTRF) technology from CisBio. The method is a competitive immunoassay between native cAMP produced by cells and the cAMP labelled with the acceptor dye, d2. The two entities then compete for binding to a monoclonal anti-cAMP antibody labeled with cryptate. The specific signal is inversely proportional to the concentration of cAMP in the cells.
Test compounds were solubilized to 30 mM in 100% dimethyl sulfoxide (DMSO) and stored. […]
(95% O2: 5% CO2) overnight, with micro-clime lids (Labcyte, Cat No. LLS-0310). […] Intracellular cAMP levels were quantified as per Cisbio's protocol (5 uL of D2 and then 5 uL Cryptate, incubated for 1-2 hours at room temperature).
Data expressed as nM cAMP were then normalized to control wells using Activity Base (IDBS). […]

Chain of human Melanocortin-4 receptor (MC4R) (P32245 whole entry): as above

| Kb [nM] | Structure (SMILES) |
| --- | --- |
| > 92 | COc1cc([C@@H](C)C(=O)N2CC[C@@]3(CCc4cc(Cl)c(C)nc4N3)C2)c(F)cn1 (single isomer, unassigned) [Example 103] |

Same assay, conditions: read-out: Kb (nM) Antagonist geometric

| Structure (SMILES) | Kb [nM] |
| --- | --- |
| COc1cc([C@@H](C)C(=O)N2CC[C@@]3(CCc4cc(-c5cnccn5)c(C)nc4N3)C2)c(F)cn1 [Example 142, (2R)-2-(5-fluoro-2-methoxypyridin-4-yl)-1-[(2S)-7-methyl-6-(pyrazin-2-yl)-3,4-dihydro-1H-spiro[1,8-naphthyridine-2,3′-pyrrolidin]-1′-yl]propan-1-one] | 3.6 |
